From patent US6204220A, “Substituted 2-oxo-3-alkynoic acids and methods of use thereof” (Rutgers, The State University of New Jersey, priority 1999, dated 2001)
Several values for one entry are separate records, joined by “and”; a condition that tells them apart may be missing. Equal entries are not always repeated. Where two headings read alike, the source gives them in different places.

How the values were obtained:
E1 = target: T1, E1 (Escherichia coli, UniProt P0AFG8); assay: Quantification of sulfhydryl groups in E1 (DTNB titration); design: species or system E. coli
T1 construct: made in house; host or cells: resolved from PDHc expressed in E. coli JRG1342
T1 sequence (P0AFG8 2-887): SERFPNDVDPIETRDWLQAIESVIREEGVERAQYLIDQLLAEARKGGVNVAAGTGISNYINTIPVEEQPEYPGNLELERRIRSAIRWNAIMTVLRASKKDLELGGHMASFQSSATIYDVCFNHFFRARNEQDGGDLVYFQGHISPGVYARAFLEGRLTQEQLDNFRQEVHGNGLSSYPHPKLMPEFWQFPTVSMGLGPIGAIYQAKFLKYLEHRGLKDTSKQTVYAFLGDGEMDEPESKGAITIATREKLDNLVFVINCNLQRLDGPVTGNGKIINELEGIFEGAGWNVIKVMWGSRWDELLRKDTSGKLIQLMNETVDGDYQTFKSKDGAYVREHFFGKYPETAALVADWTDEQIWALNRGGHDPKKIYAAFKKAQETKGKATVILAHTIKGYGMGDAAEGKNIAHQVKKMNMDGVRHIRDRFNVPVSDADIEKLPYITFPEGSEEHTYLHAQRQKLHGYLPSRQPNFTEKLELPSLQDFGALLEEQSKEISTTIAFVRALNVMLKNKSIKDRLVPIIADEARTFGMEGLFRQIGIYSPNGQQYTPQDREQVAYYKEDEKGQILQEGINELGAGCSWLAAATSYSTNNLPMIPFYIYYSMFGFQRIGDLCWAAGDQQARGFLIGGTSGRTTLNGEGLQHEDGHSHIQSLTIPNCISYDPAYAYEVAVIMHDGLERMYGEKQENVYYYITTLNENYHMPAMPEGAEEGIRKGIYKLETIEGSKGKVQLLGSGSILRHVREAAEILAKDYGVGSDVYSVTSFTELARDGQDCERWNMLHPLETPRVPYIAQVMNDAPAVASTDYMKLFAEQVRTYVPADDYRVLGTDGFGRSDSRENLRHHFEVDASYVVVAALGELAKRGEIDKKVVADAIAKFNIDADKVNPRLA
Protocol: Quantification of the fraction of sulfhydryl groups in E1 modified by 2-oxo-3-butynoic acid. The concentration of titratable sulfhydryl groups was determined by treating samples (1 mL) containing E1 (3.02×10^-6 M) in 0.05 M KH2 PO4 buffer, pH 8.0 and 8 M urea, with small aliquots of 5,5'-dithiobis-(2-nitrobenzoic acid) from a 1 mM stock solution, and comparing the absorbencies at 412 nm with those obtained with freshly prepared cysteine solutions in the range 10×10^-6 -50×10^-6 M. Protein concentrations were determined by the Bio-Rad method with bovine serum albumin as standard.

[1] = target: T2, C259S variant of 1-lip PDHc (Escherichia coli, UniProt P0AFG8, C260S); assay: Inactivation of C259S variant of 1-lip PDHc; format: biochemical, E. coli; settings: butynoic acid at 1 mM
T2 construct: made in house; host or cells: E. coli JRG1342 (PDHc null), Ptac plasmid pGS457
T2 sequence (P0AFG8 2-887 C260S): as the sequence (P0AFG8 2-887) above, with C259S counted along it
Protocol: FIG. 6. Inactivation of 1-lip PDHc and its C259N and C259S variants by 2-oxo-3-butynoic acid. 1-lip PDHc (0.162 mg/mL) or the C259N and C259S variants of 1-lip PDHc (0.162 mg/mL) in 20 mM KH2 PO4 buffer, pH 7.5, containing 1 mM ThDP and 5 mM MgCl2 were incubated in the absence (curve 1: 1-lip PDHc and C259N variant) or in the presence of 1 mM of 2-oxo-3-butynoic acid (curve 2: the C259N variant; curve 3: 1-lip PDHc and the C259S variant) in a total volume 0.5 mL in the dark. At different times, aliquots of 50 μL were withdrawn and the overall activity was measured as described in FIG. 1A.
(§1) Bacterial strains and plasmids for PDHc. Derivatives of the PDHc null strain, E. coli JRG1342 contained Ptac expression plasmids encoding PDHc with E2 chains bearing three lipoyl domains (3-lip PDHc; pGS523, the wild type parental complex), or a single lipoyl domain in each E2 subunit (1-lip PDHc; pGS501), and variant 1-lip PDH complexes with mutations in the E1 gene leading to C259S (pGS457) and C259N (pGS596) substitutions (Machado et al., 1992; Machado, 1993).
Inactivation of 1-lip and 3-lip PDH complexes and resolved E1 component by 2-oxo-3-alkynoic acids. […]

PDHc = PDHc (Escherichia coli, UniProt P0AFG8); assay: Inactivation of 1-lip and 3-lip PDH complexes by 2-oxo-3-alkynoic acids (overall NADH assay); format: biochemical, E. coli; design: made in house; host or cells: E. coli JRG1342 (PDHc null) with Ptac plasmid pGS501 (1-lip) or pGS523 (3-lip); settings: for protection of PDHc from inactivation by pyruvate: 5 mM pyruvate, 1 mM ThDP, 5 mM MgCl2; for protection of PDHc from inactivation by pyruvate / inactivation of PDHc in the absence of ThDP: 3-lip (heptynoic) or 1-lip (butynoic) PDHc; for kapp, slow phase of inactivation / At (residual activity): 1-lip PDHc
PDHc, sequence (P0AFG8 2-887): as the sequence (P0AFG8 2-887) above
Excerpt: as §1
Purification of PDHc. Cultures for purification of 1-lip and 3-lip PDH complexes were grown at 37° C. in LB medium containing glucose (0.2%) and ampicillin (50 μg/mL). The PDH complexes were induced by adding IPTG to 60 μM as described by Russell et al. (1992). Cells were disrupted by ultrasonic treatment after preincubation with lysozyme (0.6 mg/mL final concentration) for 15 min. The PDHc was sedimented by ultracentrifugation (100,000×g for 3 h) and further purified by chromatography on a
Sephacryl S-400 HR column. Fractions containing PDHc were pooled and treated with ammonium sulfate to 70% saturation. The enzyme was dissolved in buffer A (20 mM potassium phosphate, pH 7.8, 2 mM Na2 EDTA, 1 mM PMSF, and 1 mM benzamidine.HCl) then dialyzed against the same buffer. The PDH complexes were stored in buffer A at -20° C.
Activity and related measurements on PDHc. The overall enzymatic reaction of the PDH complex was assayed using a Varian DMS 300 spectrophotometer or the Cobas Bio (Roche Diagnostics, Somerville, N.J.) automated centrifugal analyzer, monitoring the pyruvate-dependent reduction of NAD^+ at 340 nm. The reaction medium contained in 1 mL (DMS 300) or 0.25 mL (Cobas-Bio) test volume: 0.1 M Tris-HCl, pH 8.0; 1 mM MgCl2; 2 mM sodium pyruvate; 2.5 mM NAD^+; 0.052-0.2 mM coenzyme A; 0.2 mM ThDP; and 2.6 mM DTT at 27° C. The reaction was initiated either by adding enzyme to a mixture of all other components, or by adding CoA.
One unit of activity is defined as the amount of NADH produced (μmol) per min per mg protein. The activity of resolved E1 was measured after reconstitution with excess E2-E3 subcomplex using the NADH assay for PDHc activity.
Inactivation of 1-lip and 3-lip PDH complexes and resolved E1 component by 2-oxo-3-alkynoic acids. Intact 1-lip or 3-lip PDH complexes (0.050-0.1 mg) or resolved E1 component (0.05-0.09 mg) were incubated in the dark with 5 mM MgCl2, […] of 2-oxo-3-alkynoic acids in 20 mM KH2 PO4 buffer, pH 7.5 at room temperature in a total volume 0.5 mL. The initial activity (100%) was assayed prior to the addition of 2-oxo-3-alkynoic acids. Samples (50 μL) were withdrawn periodically and diluted into 1 mL of assay solution, containing all components necessary for assay of the overall activity. The activity of untreated enzyme was stable during the time of inactivation.

C#CC(=O)C(=O)O [2-oxo-3-butynoic acid, 2-Oxo-3-butynoic acid]
SH-groups remaining per monomer (E1; E1 reacted to residual activity of 10%, G-25, DTNB titration, 8 M urea): 3.83±0.18 SH-groups per monomer
SH-groups modified per monomer / subunit (E1; difference to untreated E1): 1.3 SH-groups per monomer and 1.30±0.35 SH-groups per monomer
inactivation of C259S variant [1]: inactivated
Ki (PDHc): 7.9 µM
inhibition / inactivation of PDHc (in words) (PDHc): irreversibly inactivates
k for inactivation of PDHc (PDHc; 0.11 mM inhibitor): 0.69 min⁻¹
protection of PDHc from inactivation by pyruvate (PDHc): partially protected
kapp, slow phase of inactivation (PDHc; 0.1 mM inhibitor): 0.062 min⁻¹
kapp, slow phase of inactivation (PDHc; 0.5 mM inhibitor): 0.053 min⁻¹
kapp, slow phase of inactivation (PDHc; 1.0 mM inhibitor): 0.056 min⁻¹
At (residual activity) (PDHc; absence of pyruvate): 20%
At (residual activity) (PDHc; presence of 5 mM pyruvate): 60%
inactivation of PDHc in the absence of ThDP (PDHc): partial inactivation
extent of inactivation (PDHc; 3-lip PDHc): 99.62%
restoration of activity after dilution (PDHc; 3-lip PDHc, 20-fold dilution, 50 min incubation in overall reaction mixture): no restoration of activity
PDHc activity at new plateau, of original activity (PDHc; after a fresh portion of inhibitor was added): 6-8%
PDHc activity at plateau (PDHc; first portion of inhibitor, residual activity): about 30%
kinact/KI (PDHc; pH 7.5, second-order rate constant for inactivation, read-out: ki/Ki PDHc (converted)): 1730 M⁻¹ s⁻¹
Ki (PDHc; read-out: Ki PDHc, PDHc (1-lip PDHc)): 7.9 µM

CCCC#CC(=O)C(=O)O [2-oxo-3-heptynoic acid, 2-Oxo-3-heptynoic acid]
Ki (PDHc): 2850 µM
protection of PDHc from inactivation by pyruvate (PDHc): failed to protect
inactivation of PDHc in the absence of ThDP (PDHc): still inactivated to the same extent, but at a slower rate
protection from inactivation by DTT (PDHc; 3-lip PDHc, 5 mM DTT): partial protection
kinact/KI (PDHc; pH 7.5, read-out: ki/Ki PDHc): 2.83 M⁻¹ s⁻¹
reactivation of inactivated 3-lip PDHc by hydroxylamine (PDHc; prolonged incubation): failure to reactivate
